Measured values as given in patent publication US4940730A, “Angiogenesis enhancer” (Takeda Chemical Industries, Ltd., priority 1987, dated 1990).

Test system: hen's chlorioallantoic membrane
Test: CAM (Chorio Allantoic Membrane) assay
Format: in vivo
Conditions: for ED50: amount of drug which gave the numerical value 5 (positive rate) in CAM assay; for Positive rate of CAM assay: average neovascularization score (++=10, +=7, °=3, -=0), 3 days on membrane
Method: CAM (Chorio Allantoic Membrane) assay was conducted on various compounds of the present invention. The technique of the CAM assay was that modified somewhat on Auerbach's method [Developmental Biology, 41, 391 (1974)]. More specifically, hen's fertile eggs were incubated for three days at 37° C. (Napco carbon dioxide incubator-6300 was employed, CO2 :0% H2 O saturated). Polypropylene-made discs (6 mm. diameter) were spotted with a chloroform:ethanol (1:4 by volume) solution of each compound so that the concentration may be 0, 0.25, 0.64, 1.6, 4, 10 and 25 ug, respectively. The test materials were air-dried in a clean bench, which were then placed quietly on hen's chlorioallantoic membrane, followed by incubation at 37° C. for further three days. Then, the vascularization state was observed. In the tables, the positive rates were calculated on the following basis. Namely, degrees of neovascularization were determined as ++ for very strong, + for strong, ° for weak and - for negative, and they were numerized as 10, 7, 3 and 0, respectively. The average numerical value in each of the concentrations of the respective samples was made as positive rate. Further, the amount of the drug which gave the numerical value 5 in each sample was shown as ED50 value (ug/disc).

[1] = amount of sample 0.64 μg per disc
[2] = amount of sample 1.6 μg per disc
[3] = amount of sample 10 μg per disc
[4] = amount of sample 25 μg per disc

CCCCCCCCC(O)C(O)CCCCCCCCCCCC(=O)O (stereo not drawn) [Erucic acid diOH]
ED50: 3.45 ug/disc | Positive rate of CAM assay [1]: 0 | Positive rate of CAM assay [2]: 2.0 | Positive rate of CAM assay (amount of sample 4 μg per disc): 7.4 | Positive rate of CAM assay [3]: 8.2 | Positive rate of CAM assay [4]: 10

CCCCCCCC/C=C/CCCCCCCC(=O)O [Elaidic acid]
Positive rate of CAM assay [1]: 0 | Positive rate of CAM assay [2]: 0 | Positive rate of CAM assay (amount of sample 4 μg per disc): 3 | Positive rate of CAM assay [3]: 4 | Positive rate of CAM assay [4]: 4

CCCC(N)=O [Butyramide, reference compound]
Positive rate of CAM assay [1]: 0 | Positive rate of CAM assay [2]: 0 | Positive rate of CAM assay (amount of sample 4 μg per disc): 0 | Positive rate of CAM assay [3]: 0 | Positive rate of CAM assay [4]: 0

CCCCC/C=C\C/C=C\C/C=C\C/C=C\CCCC(=O)O [Arachidonic acid]
ED50: 3.64 ug/disc | Positive rate of CAM assay [1]: 2.5 | Positive rate of CAM assay [2]: 3.5 | Positive rate of CAM assay (amount of sample 4 μg per disc): 5.3 | Positive rate of CAM assay [3]: 7 | Positive rate of CAM assay [4]: 10

CCCCCCCC/C=C\CCCCCCCC(=O)O [Oleic acid]
ED50: 13.7 ug/disc | Positive rate of CAM assay [1]: 0 | Positive rate of CAM assay [2]: 0.8 | Positive rate of CAM assay (amount of sample 4 μg per disc): 2.5 | Positive rate of CAM assay [3]: 4 | Positive rate of CAM assay [4]: 7

CCCCCCCCC1OC1CCCCCCCCCCCCO (stereo not drawn) [13, 14-Eopxy-docosan-1-ol]
ED50: 5.18 ug/disc | Positive rate of CAM assay [1]: 0 | Positive rate of CAM assay [2]: 0 | Positive rate of CAM assay (amount of sample 4 μg per disc): 3.3 | Positive rate of CAM assay [3]: 9.3 | Positive rate of CAM assay [4]: 10

CCCCCCCC/C=C\CCCCCCCCCCCC(=O)NCC(=O)O [carboxymethyl amine]
ED50: 6.58 ug/disc | Positive rate of CAM assay [1]: 0 | Positive rate of CAM assay [2]: 0 | Positive rate of CAM assay (amount of sample 4 μg per disc): 2.6 | Positive rate of CAM assay [3]: 7.0 | Positive rate of CAM assay [4]: 10

CCCCCCCCCCCCCCCC(=O)O [Palmitic acid]
ED50: 14.5 ug/disc | Positive rate of CAM assay [1]: 0 | Positive rate of CAM assay [2]: 0 | Positive rate of CAM assay (amount of sample 4 μg per disc): 0 | Positive rate of CAM assay [3]: 3.2 | Positive rate of CAM assay [4]: 7.6

CCCCCCCCCCCCCCCCCCCCCCCCCC(=O)O [Cerotic acid]
ED50: 2.75 ug/disc | Positive rate of CAM assay [1]: 1.8 | Positive rate of CAM assay [2]: 2.5 | Positive rate of CAM assay (amount of sample 4 μg per disc): 7.8 | Positive rate of CAM assay [3]: 9.3 | Positive rate of CAM assay [4]: 8.5

CCCCCCCCCCCCCCCCCCCC(=O)O [Arachidic acid]
ED50: 4.00 ug/disc | Positive rate of CAM assay [1]: 0 | Positive rate of CAM assay [2]: 4.6 | Positive rate of CAM assay (amount of sample 4 μg per disc): 4.6 | Positive rate of CAM assay [3]: 7.6 | Positive rate of CAM assay [4]: 8.8

C=CCCCCCCCCCCCCCCCCCCCC [1-Docosene]
ED50: 5.46 ug/disc | Positive rate of CAM assay [1]: 0 | Positive rate of CAM assay [2]: 0 | Positive rate of CAM assay (amount of sample 4 μg per disc): 2.5 | Positive rate of CAM assay [3]: 10 | Positive rate of CAM assay [4]: 9.3

CCCCCCCC/C=C\CCCCCCCCCCCCCC(=O)O [Nervonic acid]
ED50: 2.75 ug/disc | Positive rate of CAM assay [1]: 1.8 | Positive rate of CAM assay [2]: 2.5 | Positive rate of CAM assay (amount of sample 4 μg per disc): 7.8 | Positive rate of CAM assay [3]: 9.3 | Positive rate of CAM assay [4]: 8.5

CCCCCC[C@@H](O)C/C=C\CCCCCCCC(=O)O [Ricinoleic acid]
Positive rate of CAM assay [1]: 0 | Positive rate of CAM assay [2]: 1.8 | Positive rate of CAM assay (amount of sample 4 μg per disc): 1.2 | Positive rate of CAM assay [3]: 2.6 | Positive rate of CAM assay [4]: 3.2

CCCCCCCC/C=C/CCCCCCCCCCCC(N)=O [Brassidamide]
ED50: 1.89 ug/disc | Positive rate of CAM assay [1]: 0 | Positive rate of CAM assay [2]: 2.0 | Positive rate of CAM assay (amount of sample 4 μg per disc): 7.4 | Positive rate of CAM assay [3]: 9.3 | Positive rate of CAM assay [4]: 10

CCCCCCCCCCCCCCCCCC(N)=O [Stearamide]
ED50: 2.63 ug/disc | Positive rate of CAM assay [1]: 0 | Positive rate of CAM assay [2]: 2 | Positive rate of CAM assay (amount of sample 4 μg per disc): 7.6 | Positive rate of CAM assay [3]: 7.7 | Positive rate of CAM assay [4]: 6.9

CCCCCCCC/C=C\CCCCCCCCCCCC(=O)Nc1ccc(Cl)cc1C(=O)O [2-NH2-4-Cl-BzCO2 H, N-erucoyl-2-amino-5-chlorobenzoic acid]
ED50: 2.70 ug/disc | Positive rate of CAM assay [1]: 2.6 | Positive rate of CAM assay [2]: 4.2 | Positive rate of CAM assay (amount of sample 4 μg per disc): 5.6 | Positive rate of CAM assay [3]: 8.0 | Positive rate of CAM assay [4]: 10

CCCCC/C=C\C/C=C\C/C=C\C/C=C\CCCC(N)=O [Arachidonamide]
ED50: 6.13 ug/disc | Positive rate of CAM assay [1]: 1.3 | Positive rate of CAM assay [2]: 1.6 | Positive rate of CAM assay (amount of sample 4 μg per disc): 2.9 | Positive rate of CAM assay [3]: 7.4 | Positive rate of CAM assay [4]: 9.6

CCCCCCCCC1OC1CCCCCCCCCCCC(N)=O (stereo not drawn) [13,14-Epoxyerucamide]
ED50: 2.22 ug/disc | Positive rate of CAM assay [1]: 1.5 | Positive rate of CAM assay [2]: 3.3 | Positive rate of CAM assay (amount of sample 4 μg per disc): 8.5 | Positive rate of CAM assay [3]: 10 | Positive rate of CAM assay [4]: 10

CCCCCCCC/C=C\CCCCCCCCCCCCO [13-Docosen-1-ol]
ED50: 2.15 ug/disc | Positive rate of CAM assay [1]: 1.4 | Positive rate of CAM assay [2]: 4.8 | Positive rate of CAM assay (amount of sample 4 μg per disc): 6.8 | Positive rate of CAM assay [3]: 9.4 | Positive rate of CAM assay [4]: 10

CCCCCCCC/C=C\CCCCCCCCCCCC(=O)N1CCC[C@H]1C(=O)OC [proline methylester, N-erucoyl-proline methyl ester]
ED50: 4.00 ug/disc | Positive rate of CAM assay [1]: 0.8 | Positive rate of CAM assay [2]: 2.3 | Positive rate of CAM assay (amount of sample 4 μg per disc): 5.0 | Positive rate of CAM assay [3]: 7.8 | Positive rate of CAM assay [4]: 10

CCCCCCCC/C=C\CCCCCCCCCCCC(=O)N1C(C(=O)O)CSC1c1ccncc1 (stereo not drawn) [2-Py-Thia-CO2 H]
ED50: 2.67 ug/disc | Positive rate of CAM assay [1]: 2.8 | Positive rate of CAM assay [2]: 2.6 | Positive rate of CAM assay (amount of sample 4 μg per disc): 6.8 | Positive rate of CAM assay [3]: 10 | Positive rate of CAM assay [4]: 10

CCCCC/C=C\C/C=C\CCCCCCCC(=O)O [Linoleic acid]
ED50: 7.69 ug/disc | Positive rate of CAM assay [1]: 0 | Positive rate of CAM assay [2]: 1.8 | Positive rate of CAM assay (amount of sample 4 μg per disc): 2.5 | Positive rate of CAM assay [3]: 6 | Positive rate of CAM assay [4]: 10

CC/C=C\C/C=C\C/C=C\C/C=C\C/C=C\C/C=C\CCC(=O)O [Docosahexaenoic acid]
Positive rate of CAM assay [1]: 0 | Positive rate of CAM assay [2]: 0 | Positive rate of CAM assay (amount of sample 4 μg per disc): 0 | Positive rate of CAM assay [3]: 0.6 | Positive rate of CAM assay [4]: 4.8

CCCCCCCCC(O)C(O)CCCCCCCCCCCC(N)=O (stereo not drawn) [Erucamide, diOH, 13,14-dihydroxydocosanamide]
ED50: 5.62 ug/disc | Positive rate of CAM assay [1]: 0 | Positive rate of CAM assay [2]: 2.0 | Positive rate of CAM assay (amount of sample 4 μg per disc): 3.8 | Positive rate of CAM assay [3]: 7.0 | Positive rate of CAM assay [4]: 9.4

CCCCCCCC/C=C\CCCCCCCCCCCC(=O)N(CCO)CCO [N, N-di-diethanol]
ED50: 2.42 ug/disc | Positive rate of CAM assay [1]: 1.0 | Positive rate of CAM assay [2]: 2.3 | Positive rate of CAM assay (amount of sample 4 μg per disc): 8.0 | Positive rate of CAM assay [3]: 10 | Positive rate of CAM assay [4]: 10

CCCCCCCCCCCCCCCC(N)=O [Palmitamide]
ED50: 15.6 ug/disc | Positive rate of CAM assay [1]: 0 | Positive rate of CAM assay [2]: 0 | Positive rate of CAM assay (amount of sample 4 μg per disc): 0.3 | Positive rate of CAM assay [3]: 2.4 | Positive rate of CAM assay [4]: 7.7

CCCCCCCC/C=C\CCCCCCCCCCCC(=O)NC [N-methyl, N-methyl erucamide]
ED50: 2.90 ug/disc | Positive rate of CAM assay [1]: 0.8 | Positive rate of CAM assay [2]: 2.3 | Positive rate of CAM assay (amount of sample 4 μg per disc): 7.8 | Positive rate of CAM assay [3]: 10 | Positive rate of CAM assay [4]: 10

CCCCCCCC/C=C\CCCCCCCCCCCC(=O)N(C)C [N,N-dimethyl]
ED50: 5.41 ug/disc | Positive rate of CAM assay [1]: 0 | Positive rate of CAM assay [2]: 1.5 | Positive rate of CAM assay (amount of sample 4 μg per disc): 3.3 | Positive rate of CAM assay [3]: 8.5 | Positive rate of CAM assay [4]: 9.3

CCCCCCCCCCCCCCCCCCCCCC[N+](C)(C)C [1-Trimethyammonio docosane bromide]
ED50: 4.00 ug/disc | Positive rate of CAM assay [1]: 0 | Positive rate of CAM assay [2]: 4.5 | Positive rate of CAM assay (amount of sample 4 μg per disc): 5.0 | Positive rate of CAM assay [3]: 8.0

CCCCCCCC/C=C\CCCCCCCC(N)=O [Oleamide]
ED50: 16.7 ug/disc | Positive rate of CAM assay [1]: 0 | Positive rate of CAM assay [2]: 0.6 | Positive rate of CAM assay (amount of sample 4 μg per disc): 0 | Positive rate of CAM assay [3]: 7.8 | Positive rate of CAM assay [4]: 6.8

CCCCCCCCCCCCCC(N)=O [Myristamide]
Positive rate of CAM assay [1]: 0 | Positive rate of CAM assay [2]: 0 | Positive rate of CAM assay (amount of sample 4 μg per disc): 1.3 | Positive rate of CAM assay [3]: 2.6 | Positive rate of CAM assay [4]: 3.5
